The assay concerns compound-treated mice. The assay can be described thus: Neuropharmacological assay (SmartCube): behavioral activity signature and minimal effective dose. The conditions noted are these: for minimal effective dose: Mus musculus, ip, MED = dose having 50% or more total activity, read-out: Potency: minimal effective dose (MED); for AD: ADHD (probability of activity signature) / AG: analgesic (probability of activity signature) / AX: anxiolytic (probability of activity signature) / CE: cognitive enhancer (probability of activity signature) / DP: anti-depressant (probability of activity signature) / MS: mood stabilizer (probability of activity signature) / PS: anti-psychotic (probability of activity signature) / SD: sedative hypnotic (probability of activity signature) / UN: uncharacterized CNS activity (probability of activity signature): i.p. 15 min before test, most efficacious dose(s). Format: in vivo. The source says: Neurosci. 2011 Sep. 9; 5:103 (doi: 10.3389/fnins.2011.00103) (“Roberds”). As reported in Roberds, because psychiatric diseases generally result from disorders of cell-cell communication or circuitry, intact systems are useful in detecting improvement in disease-relevant endpoints. These endpoints are typically behavioral in nature, often requiring human observation and interpretation. To facilitate testing of multiple compounds for behavioral effects relevant to psychiatric disease, PsychoGenics, Inc. (Tarrytown, N.Y., “PGI”) developed SmartCube™, an automated system in which behaviors of compound-treated mice are captured by digital video and analyzed with computer algorithms. (D. Brunner et al., Drug Discov. Today 2002, 7:S107-S112). PGI Analytical Systems uses data from SmartCube™ to compare the behavioral signature of a test compound to a database of behavioral signatures obtained using a large set of diverse reference compounds. (The composition of the database as well as validation of the method is further described in Roberds). In this way, the neuropharmacological effects of a test compound can be predicted by similarity to major classes of compounds, such as antipsychotics, anxiolytics and antidepressants.
The SmartCube™ system produces an activity signature indicating the probability that the activity of the test compound at the administered dose matches a given class of neuropharmacological agents. (See, e.g., Roberds, FIGS. 2 and 3). The test compound is simultaneously compared against multiple classes of agents; thus, a separate probability is generated for each behavioral effect measured (e.g., anxiolytic activity, analgesic activity, etc.). In the table below, these probabilities are reported for each behavioral effect measured as follows:
where LOQ is the limit of quantification.
Provided compounds were dissolved in a mixture of Pharmasolve™ (N-methyl-2-pyrrolidone), polyethylene glycol and propylene glycol, and were injected i.p. 15 min. before the behavioral test. For each compound, injections were administered at 3 different doses. For each behavioral effect measured, results for the most efficacious dose(s) are presented. In the table below, DP: anti-depressant; AX: anxiolytic; SD: sedative hypnotic; PS: anti-psychotic; MS: mood stabilizer; AD: ADHD; CE: cognitive enhancer; AG: analgesic; UN: uncharacterized CNS activity.
The potency of many of the compounds in the table was also determined in the SmartCube™ system. Test compounds were routinely examined at dose levels of 0.3, 1, 3, 10 and 30 mg per kg (mpk), although the dose range was increased or decreased if necessary to obtain a full dose response curve. A compound's minimal effective dose (MED) is a measure of the compounds potency. The MED was defined as the dose (in mpk) having 50% or more total activity in SmartCube.

Broadly, the minimal effective dose is the lowest level tested that produced the effect sought. Consider `C[C@@H]1OCc2ccccc2[C@@H]1N.Cl` (relative stereo) [Example 72, cis-3-methylisochroman-4-amine hydrochloride], for which the minimal effective dose fell in the range of 3 to 10 mg/kg, the “AD: ADHD (probability of activity signature)” value (from here on “AD: ADHD”) is listed as “+ (LOQ ≤ + <5%)”, the “AG: analgesic (probability of activity signature)” value (shortened to “AG: analgesic”) is given as “++ (5% ≤ ++ <25%)” and the “AX: anxiolytic (probability of activity signature)” value (“AX: anxiolytic” for short) is on record as “++ (5% ≤ ++ <25%)”. Further, the “CE: cognitive enhancer (probability of activity signature)” value (“CE: cognitive enhancer” for short) is “++ (5% ≤ ++ <25%)”, the “DP: anti-depressant (probability of activity signature)” value (“DP: anti-depressant” for short) is given as “++ (5% ≤ ++ <25%)”, the “MS: mood stabilizer (probability of activity signature)” value (from here on “MS: mood stabilizer”) is reported as “+ (LOQ ≤ + <5%)” and the “PS: anti-psychotic (probability of activity signature)” value (from here on “PS: anti-psychotic”) was “++ (5% ≤ ++ <25%)”. Besides, the “SD: sedative hypnotic (probability of activity signature)” value (“SD: sedative hypnotic” for short) was “++ (5% ≤ ++ <25%)” and the “UN: uncharacterized CNS activity (probability of activity signature)” value (“UN: uncharacterized CNS activity” below) is recorded as “+++ (25% ≤ +++ <50%)”.

In the case of `C[C@@H]1OCc2ccccc2[C@H]1N.Cl` (relative stereo) [Example 73, trans-3-methylisochroman-4-amine hydrochloride], the minimal effective dose was < 3 mg/kg, the “AD: ADHD” value was “+ (LOQ ≤ + <5%)”, the “AG: analgesic” value is “++ (5% ≤ ++ <25%)” and the “AX: anxiolytic” value is reported as “+++ (25% ≤ +++ <50%)”. Also, the “CE: cognitive enhancer” value is reported as “++ (5% ≤ ++ <25%)”, the “DP: anti-depressant” value is reported as “++ (5% ≤ ++ <25%)”, the “MS: mood stabilizer” value was “+ (LOQ ≤ + <5%)” and the “PS: anti-psychotic” value is reported as “++ (5% ≤ ++ <25%)”. In addition, the “SD: sedative hypnotic” value is reported as “+ (LOQ ≤ + <5%)” and the “UN: uncharacterized CNS activity” value is “+++ (25% ≤ +++ <50%)”.

`Cc1ccc2c(c1)[C@H](N)[C@H](C)COC2.Cl` (relative stereo) [Example 74, cis-4,7-dimethyl-1,3,4,5-tetrahydrobenzo [c]oxepin-5-amine hydrochloride]: the minimal effective dose is 10 to 30 mg/kg, the “AD: ADHD” value was “+ (LOQ ≤ + <5%)”, the “AG: analgesic” value is on record as “++ (5% ≤ ++ <25%)” and the “AX: anxiolytic” value is given as “++ (5% ≤ ++ <25%)”. Moreover, the “CE: cognitive enhancer” value was “+ (LOQ ≤ + <5%)”, the “DP: anti-depressant” value is given as “++ (5% ≤ ++ <25%)”, the “MS: mood stabilizer” value is recorded as “+ (LOQ ≤ + <5%)” and the “PS: anti-psychotic” value is recorded as “+ (LOQ ≤ + <5%)”. Further, the “SD: sedative hypnotic” value is on record as “+ (LOQ ≤ + <5%)” and the “UN: uncharacterized CNS activity” value is “+++ (25% ≤ +++ <50%)”.

In the case of `Cc1ccc2c(c1)[C@H](N)[C@@H](C)COC2.Cl` (relative stereo) [Example 75, trans-4,7-dimethyl-1,3,4,5-tetrahydrobenzo [c]oxepin-5-amine hydrochloride], the minimal effective dose was in the range of 10 to 30 mg/kg, the “AD: ADHD” value was “+ (LOQ ≤ + <5%)”, the “AG: analgesic” value was “++ (5% ≤ ++ <25%)” and the “AX: anxiolytic” value was “++ (5% ≤ ++ <25%)”. Besides, the “CE: cognitive enhancer” value is on record as “++ (5% ≤ ++ <25%)”, the “DP: anti-depressant” value is on record as “+ (LOQ ≤ + <5%)”, the “MS: mood stabilizer” value is given as “+ (LOQ ≤ + <5%)” and the “PS: anti-psychotic” value is reported as “++ (5% ≤ ++ <25%)”. Besides, the “SD: sedative hypnotic” value is given as “+ (LOQ ≤ + <5%)” and the “UN: uncharacterized CNS activity” value is “+++ (25% ≤ +++ <50%)”.

Consider `Cc1ccc2c(c1)[C@H](N)[C@H](C)OC2.Cl` (relative stereo) [Example 76, cis-3,6-Dimethylisochroman-4-amine hydrochloride], for which the minimal effective dose was < 3 mg/kg, the “AD: ADHD” value was “+ (LOQ ≤ + <5%)”, the “AG: analgesic” value is listed as “++ (5% ≤ ++ <25%)” and the “AX: anxiolytic” value is “++ (5% ≤ ++ <25%)”. The “CE: cognitive enhancer” value is recorded as “++ (5% ≤ ++ <25%)”, the “DP: anti-depressant” value is on record as “++ (5% ≤ ++ <25%)”, the “MS: mood stabilizer” value is given as “+ (LOQ ≤ + <5%)” and the “PS: anti-psychotic” value is recorded as “++ (5% ≤ ++ <25%)”. The “SD: sedative hypnotic” value was “+ (LOQ ≤ + <5%)” and the “UN: uncharacterized CNS activity” value was “+++ (25% ≤ +++ <50%)”.

`Cc1ccc2c(c1)[C@@H](N)[C@H](C)OC2.Cl` (relative stereo) [Example 77, trans-3,6-Dimethylisochroman-4-amine hydrochloride]: the minimal effective dose was < 3 mg/kg, the “AD: ADHD” value is listed as “+ (LOQ ≤ + <5%)”, the “AG: analgesic” value is “++ (5% ≤ ++ <25%)” and the “AX: anxiolytic” value is “++ (5% ≤ ++ <25%)”. Further, the “CE: cognitive enhancer” value is “++ (5% ≤ ++ <25%)”, the “DP: anti-depressant” value is on record as “++ (5% ≤ ++ <25%)”, the “MS: mood stabilizer” value is “+ (LOQ ≤ + <5%)” and the “PS: anti-psychotic” value is recorded as “++ (5% ≤ ++ <25%)”. In addition, the “SD: sedative hypnotic” value is “+ (LOQ ≤ + <5%)” and the “UN: uncharacterized CNS activity” value was “+++ (25% ≤ +++ <50%)”.

In the case of `CC[C@H]1OCc2ccc(C)cc2[C@@H]1N.Cl` (relative stereo) [Example 99, trans-3-Ethyl-6-methylisochroman-4-amine hydrochloride], the minimal effective dose was in the range of 3 to 10 mg/kg, the “AD: ADHD” value is recorded as “+ (LOQ ≤ + <5%)”, the “AG: analgesic” value is reported as “++ (5% ≤ ++ <25%)” and the “AX: anxiolytic” value is recorded as “+++ (25% ≤ +++ <50%)”. The “CE: cognitive enhancer” value is “++ (5% ≤ ++ <25%)”, the “DP: anti-depressant” value was “++ (5% ≤ ++ <25%)”, the “MS: mood stabilizer” value is “+ (LOQ ≤ + <5%)” and the “PS: anti-psychotic” value was “++ (5% ≤ ++ <25%)”. For the same compound, the “SD: sedative hypnotic” value was “+ (LOQ ≤ + <5%)” and the “UN: uncharacterized CNS activity” value is given as “+++ (25% ≤ +++ <50%)”.

In the case of `CC[C@@H]1OCc2ccc(C)cc2[C@@H]1N.Cl` (relative stereo) [Example 100, cis-3-Ethyl-6-methylisochroman-4-amine hydrochloride], the minimal effective dose was < 3 mg/kg, the “AD: ADHD” value was “+ (LOQ ≤ + <5%)”, the “AG: analgesic” value is recorded as “++ (5% ≤ ++ <25%)” and the “AX: anxiolytic” value is “++ (5% ≤ ++ <25%)”. Besides, the “CE: cognitive enhancer” value is given as “++ (5% ≤ ++ <25%)”, the “DP: anti-depressant” value is listed as “++ (5% ≤ ++ <25%)”, the “MS: mood stabilizer” value was “+ (LOQ ≤ + <5%)” and the “PS: anti-psychotic” value is “+++ (25% ≤ +++ <50%)”. In addition, the “SD: sedative hypnotic” value is reported as “++ (5% ≤ ++ <25%)” and the “UN: uncharacterized CNS activity” value was “+++ (25% ≤ +++ <50%)”.

Consider `C[C@@H]1OC[C@H](N)c2ccccc21.Cl` (relative stereo) [Example 104, cis-1-Methylisochroman-4-amine hydrochloride], for which the minimal effective dose fell in the range of 3 to 10 mg/kg, the “AD: ADHD” value was “+ (LOQ ≤ + <5%)”, the “AG: analgesic” value is recorded as “++ (5% ≤ ++ <25%)” and the “AX: anxiolytic” value was “++ (5% ≤ ++ <25%)”. For the same compound, the “CE: cognitive enhancer” value was “++ (5% ≤ ++ <25%)”, the “DP: anti-depressant” value is “++ (5% ≤ ++ <25%)”, the “MS: mood stabilizer” value is given as “+ (LOQ ≤ + <5%)” and the “PS: anti-psychotic” value is recorded as “++ (5% ≤ ++ <25%)”. Moreover, the “SD: sedative hypnotic” value is recorded as “++ (5% ≤ ++ <25%)” and the “UN: uncharacterized CNS activity” value is reported as “+++ (25% ≤ +++ <50%)”.

These data come from patent US11077090B2, “Compounds and compositions and uses thereof” (Sunovion Pharmaceuticals Inc., priority 2016, dated 2021).
